Experimental data taken from US11046680B1, “Heteroaryl-substituted triazoles as APJ receptor agonists” (priority 2016, dated 2021).

Each compound was assayed against human APJ receptor (Homo sapiens (Human), UniProt P35414) (assay: biochemical). Settings: [35S]GTPγS binding, CHO membranes expressing human APJ receptor; read-out: Activity hAPJ SPA EC50 IP.
Format: biochemical
Summary of the method: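 Membranes of a stable CHO line carrying human APJ (pFLAG-CMV-3) were used in a GTPγS binding format; buffer GDP, MgCl2 and NaCl were optimized, and plates were read after 90 min at RT.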

human APJ receptor, sequence (P35414 whole entry): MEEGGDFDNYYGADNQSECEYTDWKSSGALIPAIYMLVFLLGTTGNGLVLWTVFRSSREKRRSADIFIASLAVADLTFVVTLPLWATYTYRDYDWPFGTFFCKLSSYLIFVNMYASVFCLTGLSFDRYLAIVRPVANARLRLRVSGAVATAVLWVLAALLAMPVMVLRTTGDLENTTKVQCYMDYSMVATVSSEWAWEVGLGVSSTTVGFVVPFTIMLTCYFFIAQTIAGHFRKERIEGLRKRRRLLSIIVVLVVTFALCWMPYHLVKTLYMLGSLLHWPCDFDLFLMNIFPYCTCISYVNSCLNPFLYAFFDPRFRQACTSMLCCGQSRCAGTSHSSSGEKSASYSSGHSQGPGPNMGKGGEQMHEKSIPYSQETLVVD

Point of comparison: COc1cccc(OC)c1-n1c(NS(=O)(=O)[C@@H](C)[C@H](OC)c2ncc(Cl)cn2)nnc1-c1ccn(C(F)F)n1 [Example 207.0, (1R,2S)-1-(5-chloro-2-pyrimidinyl)-N-(5-(1-(difluoromethyl)-1H-pyrazol-3-yl)-4-(2,6-dimethoxyphenyl)-4H-1,2,4-triazol-3-yl)-1-methoxy-2-propanesulfonamide], EC50 0.13 nM. Against it:
- COc1ncnc(OC)c1-n1c(NS(=O)(=O)[C@@H](C)[C@H](OC)c2ncc(Cl)cn2)nnc1-c1ccn(C)n1 [Example 450.0, (1R,2S)-1-(5-chloro-2-pyrimidinyl)-N-(4-(4,6-dimethoxy-5-pyrimidinyl)-5-(1-methyl-1H-pyrazol-3-yl)-4H-1,2,4-triazol-3-yl)-1-methoxy-2-propanesulfonamide] — 6.2-fold higher, 0.81 nM
- CO[C@H](c1ncc(Cl)cn1)[C@H](C)S(=O)(=O)Nc1nnc(-c2n[nH]c3c2CCC3)n1C1(C)CCC1 [Example 492.0, (1R,2S)-1-(5-chloropyrimidin-2-yl)-1-methoxy-N-(4-(1-methylcyclobutyl)-5-(1,4,5,6-tetrahydrocyclopenta[c]pyrazol-3-yl)-4H-1,2,4-triazol-3-yl)propane-2-sulfonamide] — 260-fold higher, 34 nM
- CC(C)O[C@@H](c1ncc(Cl)cn1)[C@H](C)S(=O)(=O)Nc1nnc(-c2ccn(C)n2)n1C(C)C [Example 537.0, (1S,2S)-1-(5-chloro-2-pyrimidinyl)-N-(5-(1-methyl-1H-pyrazol-3-yl)-4-(2-propanyl)-4H-1,2,4-triazol-3-yl)-1-(2-propanyloxy)-2-propanesulfonamide] — 210-fold higher, 27 nM
- COc1cccc(OC)c1-n1c(NS(=O)(=O)[C@H](C)Cc2ncc(F)cn2)nnc1-c1nc(C)cs1 (single isomer, unassigned) [Example 101.0, (R)-N-(4-(2,6-Dimethoxyphenyl)-5-(4-methylthiazol-2-yl)-4H-1,2,4-triazol-3-yl)-1-(5-fluoropyrimidin-2-yl)propane-2-sulfonamide or (S)-N-(4-(2,6-dimethoxyphenyl)-5-(4-methylthiazol-2-yl)-4H-1,2,4-triazol-3-yl)-1-(5-fluoropyrimidin-2-yl)propane-2-sulfonamide] — 5.4-fold higher, 0.7 nM
- (2R,3R)-3-(5-Cyanopyrimidin-2-yl)-N-(4-(2,6-dimethoxyphenyl)-5-(4-methylthiazol-2-yl)-4H-1,2,4-triazol-3-yl)-3-fluorobutane-2-sulfonamide and (2S,3S)-3-(5-cyanopyrimidin-2-yl)-N-(4-(2,6-dimethoxyphenyl)-5-(4-methylthiazol-2-yl)-4H-1,2,4-triazol-3-yl)-3-fluorobutane-2-sulfonamide [Example 321.0] — 12-fold higher, 1.6 nM
- COCC1(n2c(NS(=O)(=O)[C@@H](C)[C@H](OC)c3ncc(Cl)cn3)nnc2-c2n[nH]c3ccc(C)cc23)CC1 [Example 493.0, (1R,2S)-1-(5-chloropyrimidin-2-yl)-1-methoxy-N-(4-(1-(methoxymethyl)cyclopropyl)-5-(5-methyl-1H-indazol-3-yl)-4H-1,2,4-triazol-3-yl)propane-2-sulfonamide] — 330-fold higher, 43 nM
- COc1cccc(OC)c1-n1c(NS(=O)(=O)[C@@H](C)[C@H](OC)c2ncc(C)cn2)nnc1-c1cc(C)[nH]n1 [Example 333.0, (1R,2S)-N-(4-(2,6-dimethoxyphenyl)-5-(5-methyl-1H-pyrazol-3-yl)-4H-1,2,4-triazol-3-yl)-1-methoxy-1-(5-methyl-2-pyrimidinyl)-2-propanesulfonamide] — 12-fold higher, 1.5 nM
- COc1cnc([C@@H](C)[C@H](C)S(=O)(=O)Nc2nnc(-c3ccn(C)n3)n2-c2c(OC)ncnc2OC)cn1 [Example 292.0, (2S,3R)-N-(4-(4,6-dimethoxy-5-pyrimidinyl)-5-(1-methyl-1H-pyrazol-3-yl)-4H-1,2,4-triazol-3-yl)-3-(5-methoxy-2-pyrazinyl)-2-butanesulfonamide] — 9.2-fold higher, 1.2 nM
- CO[C@H](c1ncc(Cl)cn1)[C@H](C)S(=O)(=O)Nc1nnc(-c2ccn(C)n2)n1-c1c(F)cccc1F [Example 229.0, (1R,2S)-1-(5-chloro-2-pyrimidinyl)-N-(4-(2,6-difluorophenyl)-5-(1-methyl-1H-pyrazol-3-yl)-4H-1,2,4-triazol-3-yl)-1-methoxy-2-propanesulfonamide] — 24-fold higher, 3.1 nM
- COc1cccc(OC)c1-n1c(NS(=O)(=O)[C@@H](C)[C@@H](OC(C)C)c2ncc(C)cn2)nnc1-c1cnn2c1CCC2 [Example 446.0, (1S,2S)-N-(5-(5,6-dihydro-4H-pyrrolo[1,2-b]pyrazol-3-yl)-4-(2,6-dimethoxyphenyl)-4H-1,2,4-triazol-3-yl)-1-isopropoxy-1-(5-methylpyrimidin-2-yl)propane-2-sulfonamide] — 5.7-fold higher, 0.74 nM
- COCC[C@@H]([C@H](C)c1ncc(F)cn1)S(=O)(=O)Nc1nnc(-c2nc(C)cs2)n1-c1c(OC)cccc1OC (single isomer, unassigned) [Example 19.0] — 48-fold higher, 6.3 nM
- CNC(=O)n1ccc(-c2nnc(NS(=O)(=O)[C@@H](C)Cc3ncc(F)cn3)n2-c2c(OC)cccc2OC)n1 (single isomer, unassigned) [Example 73.0, (R)-3-(4-(2,6-dimethoxyphenyl)-5-(2-(5-fluoropyrimidin-2-yl)-1-methylethylsulfonamido)-4H-1,2,4-triazol-3-yl)-N-methyl-1H-pyrazole-1-carboxamide or (S)-3-(4-(2,6-dimethoxyphenyl)-5-(2-(5-fluoropyrimidin-2-yl)-1-methylethylsulfonamido)-4H-1,2,4-triazol-3-yl)-N-methyl-1H-pyrazole-1-carboxamide] — 220-fold higher, 29 nM
- CCO[C@H](c1ncc(F)cn1)[C@H](C)S(=O)(=O)Nc1nnc(-c2ccn(C)n2)n1-c1c(OC)cccc1OC [Example 135.0, (1R,2S)-N-(4-(2,6-Dimethoxyphenyl)-5-(1-methyl-1H-pyrazol-3-yl)-4H-1,2,4-triazol-3-yl)-1-ethoxy-1-(5-fluoro-2-pyrimidinyl)-2-propanesulfonamide] — 6.8-fold higher, 0.88 nM
- COc1cccc(OC)c1-n1c(NS(=O)(=O)C[C@H](O)c2ccc(Cl)cn2)nnc1-c1ccn(C)n1 (mixture of isomers) [Example 363.0, (R)-2-(5-Chloropyridin-2-yl)-N-(4-(2,6-dimethoxyphenyl)-5-(1-methyl-1H-pyrazol-3-yl)-4H-1,2,4-triazol-3-yl)-2-hydroxyethanesulfonamide and (S)-2-(5-chloropyridin-2-yl)-N-(4-(2,6-dimethoxyphenyl)-5-(1-methyl-1H-pyrazol-3-yl)-4H-1,2,4-triazol-3-yl)-2-hydroxyethanesulfonamide] — 12-fold higher, 1.5 nM
- COCC1(n2c(NS(=O)(=O)[C@@H](C)[C@H](C)c3cnc(OC)cn3)nnc2-c2ccn(C)n2)CC1 [Example 454.0, (2S,3R)-N-(4-(1-(methoxymethyl)cyclopropyl)-5-(1-methyl-1H-pyrazol-3-yl)-4H-1,2,4-triazol-3-yl)-3-(5-methoxy-2-pyrazinyl)-2-butanesulfonamide] — 430-fold higher, 56 nM
- CO[C@H](c1cnc(C)cn1)[C@H](C)S(=O)(=O)Nc1nnc(-c2ccn(C)n2)n1-c1c(F)cccc1F [Example 232.0, (1R,2S)-N-(4-(2,6-difluorophenyl)-5-(1-methyl-1H-pyrazol-3-yl)-4H-1,2,4-triazol-3-yl)-1-methoxy-1-(5-methyl-2-pyrazinyl)-2-propanesulfonamide] — 420-fold higher, 54 nM
- COc1ccc(NCCO)cc1-n1c(NS(=O)(=O)CCc2ccc(Cl)cc2)nnc1-c1cccs1 [Example 251.0, 2-(4-chlorophenyl)-N-(4-(5-((2-hydroxyethyl)amino)-2-methoxyphenyl)-5-(2-thiophenyl)-4H-1,2,4-triazol-3-yl)ethanesulfonamide] — 3500-fold higher, 460 nM
- COc1cccc(OC)c1-n1c(NS(=O)(=O)[C@H](C)[C@H](O)c2ncc(C)cn2)nnc1-c1nc(C)cs1 (single isomer, unassigned) [Example 315.0, (1R,2R)-N-(4-(2,6-dimethoxyphenyl)-5-(4-methylthiazol-2-yl)-4H-1,2,4-triazol-3-yl)-1-hydroxy-1-(5-methylpyrimidin-2-yl)propane-2-sulfonamide or (1S,2S)-N-(4-(2,6-dimethoxyphenyl)-5-(4-methylthiazol-2-yl)-4H-1,2,4-triazol-3-yl)-1-hydroxy-1-(5-methylpyrimidin-2-yl)propane-2-sulfonamide] — 5.2-fold higher, 0.68 nM
- COc1cnc([C@H](C)[C@@H](C)S(=O)(=O)Nc2nnc(-c3ccn(C)n3)n2-c2c(OC)cccc2OC)nc1 [Example 457.0, (2R,3S)-N-(4-(2,6-dimethoxyphenyl)-5-(1-methyl-1H-pyrazol-3-yl)-4H-1,2,4-triazol-3-yl)-3-(5-methoxy-2-pyrimidinyl)-2-butanesulfonamide] — 190-fold higher, 25 nM
- COc1cccc(OC)c1-n1c(NS(=O)(=O)[C@H](C)Cc2ccc(C#N)cn2)nnc1-c1nc(C)cs1 (single isomer, unassigned) [Example 11.0, (2R)-1-(5-cyano-2-pyridinyl)-N-(4-(2,6-dimethoxyphenyl)-5-(4-methyl-1,3-thiazol-2-yl)-4H-1,2,4-triazol-3-yl)-2-propanesulfonamide or (2S)-1-(5-cyano-2-pyridinyl)-N-(4-(2,6-dimethoxyphenyl)-5-(4-methyl-1,3-thiazol-2-yl)-4H-1,2,4-triazol-3-yl)-2-propanesulfonamide] — 6.2-fold higher, 0.8 nM
- COc1cnc([C@@H](C)[C@@H](C)S(=O)(=O)Nc2nnc(-c3ccn(C)n3)n2-c2c(OC)ncnc2OC)nc1 [Example 298.0] — 7.7-fold higher, 1 nM
- CCc1csc(-c2nnc(NS(=O)(=O)[C@H](C)Cc3ncc(F)cn3)n2-c2c(OC)cccc2OC)n1 (single isomer, unassigned) [Example 105.0, (R)-N-(4-(2,6-dimethoxyphenyl)-5-(4-ethylthiazol-2-yl)-4H-1,2,4-triazol-3-yl)-1-(5-fluoropyrimidin-2-yl)propane-2-sulfonamide or (S)-N-(4-(2,6-dimethoxyphenyl)-5-(4-ethylthiazol-2-yl)-4H-1,2,4-triazol-3-yl)-1-(5-fluoropyrimidin-2-yl)propane-2-sulfonamide] — 11-fold higher, 1.4 nM
